Columns and labels:
[1] = tested on: Lacticaseibacillus casei; assay: Tested for growth inhibition of Lactobacillus casei (ATCC […]); assay type: functional, organism-based
[2] = tested on: Enterococcus faecium; assay: Tested for growth inhibition of Streptococcus faecium (ATCC 8043); assay type: functional, organism-based
[3] = molecular target: Dihydrofolate reductase (Lactobacillus casei, UniProt P00381); assay: Inhibitory activity against dihydrofolate reductase of Lactobacillus casei; parameters: species or system Lacticaseibacillus casei
Dihydrofolate reductase, sequence (P00381 whole entry): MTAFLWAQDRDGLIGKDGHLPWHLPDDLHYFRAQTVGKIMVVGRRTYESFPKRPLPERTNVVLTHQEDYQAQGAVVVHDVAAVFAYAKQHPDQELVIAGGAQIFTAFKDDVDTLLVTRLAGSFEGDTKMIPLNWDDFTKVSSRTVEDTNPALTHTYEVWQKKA

[4] = tested on: Lacticaseibacillus casei; assay: Tested for growth inhibition of Lactobacillus casei (MTX resistant); assay type: functional, organism-based
[5] = tested on: L1210; assay: Tested for growth inhibition of L1210 leukemia cells; assay type: functional, cell-based; conditions: Mus musculus
[6] = tested on: Enterococcus faecium; assay: Tested for growth inhibition of Streptococcus faecium (MTX resistant); assay type: functional, organism-based
[7] = molecular target: T1, Thymidylate synthase (Lactobacillus casei, UniProt P00469); assay: Inhibitory activity against thymidylate synthase of Lactobacillus casei; parameters: species or system Lacticaseibacillus casei
T1 sequence (P00469 whole entry): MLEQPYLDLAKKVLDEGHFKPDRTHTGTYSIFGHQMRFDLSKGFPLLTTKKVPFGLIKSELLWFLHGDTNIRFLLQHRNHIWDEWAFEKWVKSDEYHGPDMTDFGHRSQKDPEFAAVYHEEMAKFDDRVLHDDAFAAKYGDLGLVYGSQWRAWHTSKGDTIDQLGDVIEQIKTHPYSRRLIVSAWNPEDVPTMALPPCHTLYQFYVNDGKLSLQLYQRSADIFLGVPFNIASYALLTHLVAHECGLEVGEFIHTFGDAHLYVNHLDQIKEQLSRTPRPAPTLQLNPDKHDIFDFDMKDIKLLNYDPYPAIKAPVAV

[8] = molecular target: Thymidylate synthase (Escherichia coli, UniProt C3SWJ7); assay: Inhibitory activity against thymidylate synthase of Escherichia coli
Thymidylate synthase (Escherichia coli, UniProt C3SWJ7), sequence (C3SWJ7 whole entry): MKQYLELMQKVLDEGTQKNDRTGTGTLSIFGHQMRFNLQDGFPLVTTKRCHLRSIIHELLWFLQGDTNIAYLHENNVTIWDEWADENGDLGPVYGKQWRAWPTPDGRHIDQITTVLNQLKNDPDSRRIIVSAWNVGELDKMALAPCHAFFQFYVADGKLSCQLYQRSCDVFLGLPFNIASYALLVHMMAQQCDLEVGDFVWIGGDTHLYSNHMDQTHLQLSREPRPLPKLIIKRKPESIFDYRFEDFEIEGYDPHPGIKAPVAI

Structure (SMILES) | IC50 [1] [nM] | IC50 [2] [nM] | IC50 [3] [µM] | IC50 [4] [nM] | IC50 [5] [µM] | IC50 [6] [nM] | IC50 [7] [µM] | IC50 [8] [nM]
Nc1nc(O)c2nc(CCNc3ccc(C(=O)NC(CCC(=O)O)C(=O)O)cc3)cnc2n1 (stereo unspecified) | 220 | 2200 | – | – | – | – | – | –
Nc1nc(O)c2nc(CCNc3ccc(C(=O)NC(CCC(=O)O)C(=O)O)cc3)ccc2n1 (stereo unspecified) | 19 | 21 | 220 | 330 | 87 | 1100 | 160 | –
Nc1nc(O)c2c(n1)NCC(CCNc1ccc(C(=O)NC(CCC(=O)O)C(=O)O)cc1)N2 (stereo unspecified) | 13 | 1.5 | – | – | – | – | – | 2000
Nc1nc(O)c2c(n1)CCC(CNc1ccc(C(=O)NC(CCC(=O)O)C(=O)O)cc1)N2 (stereo unspecified) | 2.7 | 1.6 | 55 | > 4000 | – | 1040 | 75 | –
Nc1nc(O)c2nc(CNc3ccc(C(=O)NC(CCC(=O)O)C(=O)O)cc3)ccc2n1 (stereo unspecified) | 1.4 | 0.3 | 12 | 2040 | 1.33 | 294 | 14 | –
CN(Cc1cnc2nc(N)nc(N)c2n1)c1ccc(C(=O)N[C@@H](CCC(=O)O)C(=O)O)cc1 [METHOTREXATE] | 0.05 | 0.8 | – | – | 0.0039 | 8000 | – | –
Nc1nc2c(c(=O)[nH]1)NC(CCNc1ccc(C(=O)NC(CCC(=O)O)C(=O)O)cc1)CC2 (stereo unspecified) | 35 | 15 | 230 | > 100000 | 35.7 | > 100000 | 340 | –
